Values of other authors, collected in US20200268651A1, “STABLE VITAMIN B12 LIQUID FORMULATIONS” (priority 2019, published 2020).

Key:
[1] = long-term use
[2] = ascorbic acid (AH2), studied at pH 1.0-8.0

| people with reduced serum levels of vitamin B12 [1] | Compound | pH of maximum rate of degradation in the presence of ascorbic acid [2] |
| --- | --- | --- |
| up to 30% | CN(C)C(=N)N=C(N)N [metformin] |  |
|  | C/C1=C2/[N-][C@H]([C@H](CC(N)=O)[C@@]2(C)CCC(=O)NC[C@@H](C)OP(=O)([O-])O[C@H]2[C@@H](O)[C@@H](n3cnc4cc(C)c(C)cc43)O[C@@H]2CO)[C@]2(C)N=C(/C(C)=C3N=C(/C=C4N=C1[C@@H](CCC(N)=O)C\4(C)C)[C@@H](CCC(N)=O)[C@]\3(C)CC(N)=O)[C@@H](CCC(N)=O)[C@]2(C)CC(N)=O.[Co+3].[OH-] [hydroxocobalamin] | 5.0 pH |
|  | cyanocobalamin | 5.0 pH |
